# Measurements: patent US20200181095A1, “SELECTIVE MATRIX METALLOPROTEINASE-13 INHIBITORS” (FLORIDA ATLANTIC UNIVERSITY BOARD OF TRUSTEES, priority 2017, published 2020)
# “And” between values parts separate entries of the source, which are not always exact repeats. Equal entries are not always repeated. Where two headings read alike, the source gives them in different places.
# How the values were obtained:
# Format in all cases: biochemical
# [1] = biological target: T1, MMP-13 (Homo sapiens, UniProt P45452); assay: MMP-13 IC50 enzyme assay with fTHP-15 substrate; settings: for IC50: fTHP substrate
# T1 construct: purchased R&D Systems 511-MM
# Procedure: Inhibitor kinetics: Inhibition experiments were conducted as described previously.^3 Briefly, fTHP-15, MMP-13, and inhibitor working solutions were prepared in EAB.
# The enzyme was allowed to incubate with the test compounds for 30 min at 25° C. The assays were initiated by addition of 5 μL of fTHP-15 or Knight substrate and immediately placed in the microplate reader to record fluorescence.
# To determine IC50 values of each compound, the relative fluorescence units (RFU) from wells containing MMP-13, fTHP-15, and inhibitors were plotted vs. no-enzyme and untreated controls.
# [2] = biological target: T1, MMP-13; assay: MMP-13 inhibition constant (Ki) determination, fTHP-15; settings: fTHP-15 substrate, 4 nM MMP-13, mixed inhibition model
# Procedure: Rates of hydrolysis were obtained from plots of fluorescence versus time using data points from only the linear portion of the hydrolysis curve.
# KM values were determined by nonlinear regression analysis using the one-site hyperbolic binding model^4 and additionally evaluated by linear analysis. All Ki values were determined by nonlinear regression (hyperbolic equation) analysis using the mixed inhibition model, which allows for simultaneous determination of the mechanism of inhibition, The mechanism of inhibition was determined using the “α” parameter derived from a mixed-model inhibition by GraphPad Prism. The mechanism of inhibition was additionally confirmed by Lineweaver-Burke plots.
# [3] = biological target: T2, MMP-2 (Homo sapiens, UniProt P08253); assay: Selectivity assay MMP-2 (fTHP-15); settings: 200 nM
# T2 construct: purchased R&D Systems
# Procedure: (§1) All enzymes were purchased from R&D Systems and activated according to manufacturer's instructions. Upon activation, each enzyme was diluted in EAB to […] and stored at −80° C. until further use. […]
# [4] = biological target: T3, MMP-8 (Homo sapiens, UniProt P22894); assay: Selectivity assay MMP-8 (fTHP-15); settings: 200 nM
# T3 construct: purchased R&D Systems
# Procedure: as §1
# [5] = biological target: MMP-7 (Homo sapiens, UniProt P09237); assay: Protease selectivity profiling; design: inhibition: dose or concentration left out as unconfirmed
# [6] = biological target: BACE-1 (Homo sapiens, UniProt P56817); assay: Protease selectivity profiling; design: inhibition: dose or concentration left out as unconfirmed
# [7] = biological target: MMP-3 (Homo sapiens, UniProt P08254); assay: Protease selectivity profiling; settings: single stranded peptide substrate; inhibitor (text 1 μM); duplicates
# [8] = biological target: TACE (Homo sapiens, UniProt P78536); assay: Protease selectivity profiling; design: inhibition: dose or concentration left out as unconfirmed
# [9] = biological target: Cathepsin-S (Homo sapiens, UniProt P25774); assay: Protease selectivity profiling; design: inhibition: dose or concentration left out as unconfirmed
# [10] = biological target: Caspase-2 (Homo sapiens, UniProt P42575); assay: Protease selectivity profiling; design: inhibition: dose or concentration left out as unconfirmed
# [11] = biological target: Caspase-3 (Homo sapiens, UniProt P42574); assay: Protease selectivity profiling; design: inhibition: dose or concentration left out as unconfirmed
# [12] = biological target: uPA (Homo sapiens, UniProt P00749); assay: Protease selectivity profiling; design: inhibition: dose or concentration left out as unconfirmed
# [13] = biological target: Caspase-1 (Homo sapiens, UniProt P29466); assay: Protease selectivity profiling; design: inhibition: dose or concentration left out as unconfirmed
# [14] = biological target: Caspase-7 (Homo sapiens, UniProt P55210); assay: Protease selectivity profiling; design: inhibition: dose or concentration left out as unconfirmed
# [15] = biological target: Cathepsin-D (Homo sapiens, UniProt P07339); assay: Protease selectivity profiling; design: inhibition: dose or concentration left out as unconfirmed
# [16] = biological target: ADAM10 (Homo sapiens, UniProt O14672); assay: Protease selectivity profiling; design: inhibition: dose or concentration left out as unconfirmed
# [17] = biological target: Cathepsin-K (Homo sapiens, UniProt P43235); assay: Protease selectivity profiling; design: inhibition: dose or concentration left out as unconfirmed
# [18] = biological target: T4, Factor-XA (Homo sapiens, UniProt P00742); assay: Protease selectivity profiling; design: inhibition: dose or concentration left out as unconfirmed
# T4 construct: Factor-XA
# [19] = biological target: Cathepsin-L (Homo sapiens, UniProt P07711); assay: Protease selectivity profiling; design: inhibition: dose or concentration left out as unconfirmed
# [20] = biological target: Furin (Homo sapiens, UniProt P09958); assay: Protease selectivity profiling; design: inhibition: dose or concentration left out as unconfirmed
# [21] = biological target: ACE2 (Homo sapiens, UniProt Q9BYF1); assay: Protease selectivity profiling; design: inhibition: dose or concentration left out as unconfirmed
# [22] = biological target: Neprilysin (Homo sapiens, UniProt P08473); assay: Protease selectivity profiling; design: inhibition: dose or concentration left out as unconfirmed
# [23] = biological target: Caspase-6 (Homo sapiens, UniProt P55212); assay: Protease selectivity profiling; design: inhibition: dose or concentration left out as unconfirmed
# [24] = biological target: Thrombin (Homo sapiens, UniProt P00734); assay: Protease selectivity profiling; settings: read-out: % Inhibition Thrombin
# [25] = biological target: Caspase-5 (Homo sapiens, UniProt P51878); assay: Protease selectivity profiling; design: inhibition: dose or concentration left out as unconfirmed
# [26] = biological target: T5, MMP-12 (Homo sapiens, UniProt P39900); assay: Additional specificity assay, 10-point dilution IC50
# [27] = biological target: ACE (Homo sapiens, UniProt P12821); assay: Protease selectivity profiling; design: inhibition: dose or concentration left out as unconfirmed
# [28] = biological target: T5, MMP-12; assay: Protease selectivity profiling; settings: single stranded peptide substrate; inhibitor 1 mM (footnote; text 1 μM); duplicates
# [29] = biological target: IDE (Homo sapiens, UniProt P14735); assay: Protease selectivity profiling; design: inhibition: dose or concentration left out as unconfirmed
# [30] = single stranded peptide substrate, inhibitor 1 µM, duplicates
# T5 sequence (P39900 106-470, species assumed): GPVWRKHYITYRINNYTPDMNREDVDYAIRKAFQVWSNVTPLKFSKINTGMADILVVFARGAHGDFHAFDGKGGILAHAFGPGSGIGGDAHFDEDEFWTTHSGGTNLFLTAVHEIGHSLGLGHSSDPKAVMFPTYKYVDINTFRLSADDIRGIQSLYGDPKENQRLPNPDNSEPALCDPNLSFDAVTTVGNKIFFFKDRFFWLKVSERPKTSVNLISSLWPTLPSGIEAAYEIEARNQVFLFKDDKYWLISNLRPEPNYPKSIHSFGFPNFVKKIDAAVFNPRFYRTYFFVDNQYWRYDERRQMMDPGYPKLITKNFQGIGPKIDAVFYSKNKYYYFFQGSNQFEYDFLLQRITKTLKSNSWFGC
# Caspase-7, sequence (P55210 24-198 limits assumed, species assumed): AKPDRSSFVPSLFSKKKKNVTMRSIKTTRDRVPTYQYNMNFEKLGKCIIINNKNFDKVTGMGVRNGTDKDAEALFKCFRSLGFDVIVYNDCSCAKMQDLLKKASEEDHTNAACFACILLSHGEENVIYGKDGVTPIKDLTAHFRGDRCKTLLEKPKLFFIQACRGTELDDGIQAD
# Caspase-7, sequence (P55210 207-303 limits assumed, species assumed): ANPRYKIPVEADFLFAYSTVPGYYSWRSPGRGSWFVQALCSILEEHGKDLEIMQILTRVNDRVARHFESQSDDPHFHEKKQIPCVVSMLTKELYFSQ
# ACE2, sequence (Q9BYF1 18-805, species assumed): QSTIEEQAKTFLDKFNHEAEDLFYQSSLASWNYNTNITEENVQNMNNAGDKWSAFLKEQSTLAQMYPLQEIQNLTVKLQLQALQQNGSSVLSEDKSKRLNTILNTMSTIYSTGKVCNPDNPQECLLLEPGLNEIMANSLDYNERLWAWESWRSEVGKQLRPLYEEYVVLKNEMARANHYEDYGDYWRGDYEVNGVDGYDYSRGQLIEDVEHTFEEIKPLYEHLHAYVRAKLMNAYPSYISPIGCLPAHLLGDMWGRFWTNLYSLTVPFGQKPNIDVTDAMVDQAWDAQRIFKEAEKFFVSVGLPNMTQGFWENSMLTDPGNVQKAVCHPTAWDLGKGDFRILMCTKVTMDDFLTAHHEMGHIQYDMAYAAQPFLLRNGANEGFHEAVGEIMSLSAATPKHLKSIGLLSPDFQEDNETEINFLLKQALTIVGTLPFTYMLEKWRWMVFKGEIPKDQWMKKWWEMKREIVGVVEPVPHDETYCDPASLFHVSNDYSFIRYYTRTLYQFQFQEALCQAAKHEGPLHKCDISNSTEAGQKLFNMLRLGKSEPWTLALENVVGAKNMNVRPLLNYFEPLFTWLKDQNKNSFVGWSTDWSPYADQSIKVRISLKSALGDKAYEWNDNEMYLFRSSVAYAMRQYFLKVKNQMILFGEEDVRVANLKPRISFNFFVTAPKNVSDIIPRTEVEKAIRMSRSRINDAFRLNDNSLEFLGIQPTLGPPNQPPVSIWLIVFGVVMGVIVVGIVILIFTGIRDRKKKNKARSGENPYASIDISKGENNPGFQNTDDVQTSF
# Furin, sequence (P09958 108-794, species assumed): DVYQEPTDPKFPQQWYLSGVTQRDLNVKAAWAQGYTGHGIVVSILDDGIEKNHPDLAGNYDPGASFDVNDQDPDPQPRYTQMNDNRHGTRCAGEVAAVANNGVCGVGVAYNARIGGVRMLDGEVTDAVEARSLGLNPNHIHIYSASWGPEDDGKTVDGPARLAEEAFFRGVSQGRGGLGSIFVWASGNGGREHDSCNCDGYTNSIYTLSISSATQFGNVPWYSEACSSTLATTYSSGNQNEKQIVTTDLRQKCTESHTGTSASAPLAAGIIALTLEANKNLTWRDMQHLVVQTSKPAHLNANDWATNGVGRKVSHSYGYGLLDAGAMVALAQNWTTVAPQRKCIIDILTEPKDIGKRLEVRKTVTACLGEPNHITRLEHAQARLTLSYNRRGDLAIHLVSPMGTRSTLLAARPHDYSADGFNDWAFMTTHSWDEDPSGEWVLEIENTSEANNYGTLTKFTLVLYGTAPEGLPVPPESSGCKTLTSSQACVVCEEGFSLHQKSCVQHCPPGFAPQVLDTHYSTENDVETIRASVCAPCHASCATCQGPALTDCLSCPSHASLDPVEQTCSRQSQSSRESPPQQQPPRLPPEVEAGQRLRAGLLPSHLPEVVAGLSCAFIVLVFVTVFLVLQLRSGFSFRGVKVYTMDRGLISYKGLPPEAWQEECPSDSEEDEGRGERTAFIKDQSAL
# Cathepsin-K, sequence (P43235 115-329, species assumed): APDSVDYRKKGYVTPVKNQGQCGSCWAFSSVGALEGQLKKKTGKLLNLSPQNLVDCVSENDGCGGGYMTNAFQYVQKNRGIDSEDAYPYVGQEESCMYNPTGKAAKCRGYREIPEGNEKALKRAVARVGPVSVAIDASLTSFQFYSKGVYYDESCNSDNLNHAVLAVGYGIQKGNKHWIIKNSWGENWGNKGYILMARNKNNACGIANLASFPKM
# Caspase-2, sequence (P42575 170-325 limits assumed, species assumed): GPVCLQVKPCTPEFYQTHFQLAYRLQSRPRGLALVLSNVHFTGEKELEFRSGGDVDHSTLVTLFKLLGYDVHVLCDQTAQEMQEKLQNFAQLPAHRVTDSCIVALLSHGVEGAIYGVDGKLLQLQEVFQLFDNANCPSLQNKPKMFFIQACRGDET
# Caspase-2, sequence (P42575 348-452 limits assumed, species assumed): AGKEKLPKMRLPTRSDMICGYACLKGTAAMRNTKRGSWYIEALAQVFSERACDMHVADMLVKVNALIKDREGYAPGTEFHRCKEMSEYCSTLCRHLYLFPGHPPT
# Caspase-6, sequence (P55212 24-179 limits assumed, species assumed): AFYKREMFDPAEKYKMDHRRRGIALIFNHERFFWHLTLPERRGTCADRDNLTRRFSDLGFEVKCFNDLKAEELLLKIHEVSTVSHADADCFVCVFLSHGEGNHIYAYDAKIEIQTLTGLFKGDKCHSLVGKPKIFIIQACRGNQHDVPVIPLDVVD
# Caspase-6, sequence (P55212 194-293 limits assumed, species assumed): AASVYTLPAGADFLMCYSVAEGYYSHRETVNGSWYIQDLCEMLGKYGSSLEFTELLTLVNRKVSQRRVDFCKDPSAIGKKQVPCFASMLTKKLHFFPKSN
# BACE-1, sequence (P56817 46-501, species assumed): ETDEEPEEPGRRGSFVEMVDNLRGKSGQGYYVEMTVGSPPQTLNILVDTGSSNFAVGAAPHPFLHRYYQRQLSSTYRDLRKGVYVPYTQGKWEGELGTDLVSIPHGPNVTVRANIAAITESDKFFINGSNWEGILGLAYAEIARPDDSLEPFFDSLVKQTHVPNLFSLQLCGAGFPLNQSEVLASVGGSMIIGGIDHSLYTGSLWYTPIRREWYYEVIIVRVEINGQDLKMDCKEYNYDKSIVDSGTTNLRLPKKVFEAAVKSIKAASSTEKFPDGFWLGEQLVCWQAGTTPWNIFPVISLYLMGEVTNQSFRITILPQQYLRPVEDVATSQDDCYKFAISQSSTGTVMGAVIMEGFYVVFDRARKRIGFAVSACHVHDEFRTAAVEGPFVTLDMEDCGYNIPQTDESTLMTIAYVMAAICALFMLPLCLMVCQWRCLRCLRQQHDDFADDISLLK
# Cathepsin-S, sequence (P25774 115-331, species assumed): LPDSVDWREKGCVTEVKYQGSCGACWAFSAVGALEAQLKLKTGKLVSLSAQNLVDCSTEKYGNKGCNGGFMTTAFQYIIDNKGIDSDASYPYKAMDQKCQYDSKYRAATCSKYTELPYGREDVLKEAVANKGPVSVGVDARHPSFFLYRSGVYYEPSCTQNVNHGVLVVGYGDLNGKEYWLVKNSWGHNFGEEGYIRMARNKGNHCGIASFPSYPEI
# Caspase-5, sequence (P51878 138-327 limits assumed, species assumed): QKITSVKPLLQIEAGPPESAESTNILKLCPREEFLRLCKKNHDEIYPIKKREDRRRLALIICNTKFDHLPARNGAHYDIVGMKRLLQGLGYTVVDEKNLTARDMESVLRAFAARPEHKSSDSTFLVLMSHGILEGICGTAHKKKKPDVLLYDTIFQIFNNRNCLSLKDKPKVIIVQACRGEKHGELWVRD
# Caspase-5, sequence (P51878 347-434 limits assumed, species assumed): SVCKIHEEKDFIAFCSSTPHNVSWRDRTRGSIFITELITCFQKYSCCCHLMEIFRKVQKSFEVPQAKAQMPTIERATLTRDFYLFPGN
# IDE, sequence (P14735 whole entry, species assumed): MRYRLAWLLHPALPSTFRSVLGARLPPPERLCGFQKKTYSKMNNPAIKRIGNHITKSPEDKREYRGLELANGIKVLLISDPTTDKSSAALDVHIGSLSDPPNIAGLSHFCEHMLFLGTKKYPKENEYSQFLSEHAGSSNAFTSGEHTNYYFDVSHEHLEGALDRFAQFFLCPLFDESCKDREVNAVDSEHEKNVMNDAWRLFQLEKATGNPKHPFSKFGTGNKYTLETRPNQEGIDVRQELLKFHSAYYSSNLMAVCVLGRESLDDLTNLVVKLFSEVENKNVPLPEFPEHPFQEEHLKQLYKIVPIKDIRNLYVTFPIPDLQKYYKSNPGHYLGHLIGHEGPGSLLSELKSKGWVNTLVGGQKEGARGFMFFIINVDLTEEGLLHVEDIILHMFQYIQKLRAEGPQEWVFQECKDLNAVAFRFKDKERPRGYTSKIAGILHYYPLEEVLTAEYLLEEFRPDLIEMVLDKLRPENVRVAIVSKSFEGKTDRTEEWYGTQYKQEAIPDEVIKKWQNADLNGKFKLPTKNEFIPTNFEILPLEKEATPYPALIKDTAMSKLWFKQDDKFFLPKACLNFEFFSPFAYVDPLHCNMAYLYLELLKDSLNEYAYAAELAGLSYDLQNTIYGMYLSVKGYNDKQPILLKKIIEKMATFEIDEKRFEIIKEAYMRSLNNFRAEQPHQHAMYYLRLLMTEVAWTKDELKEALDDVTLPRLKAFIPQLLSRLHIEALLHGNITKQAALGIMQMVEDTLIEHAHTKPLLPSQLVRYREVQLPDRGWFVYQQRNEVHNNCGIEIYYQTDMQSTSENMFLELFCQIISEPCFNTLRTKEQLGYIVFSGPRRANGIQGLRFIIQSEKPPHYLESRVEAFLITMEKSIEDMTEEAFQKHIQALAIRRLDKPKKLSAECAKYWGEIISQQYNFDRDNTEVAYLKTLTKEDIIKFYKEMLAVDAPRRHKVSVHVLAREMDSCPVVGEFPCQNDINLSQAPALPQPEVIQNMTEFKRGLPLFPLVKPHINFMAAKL
smiles,measurement,setting,value
CNC(=O)[C@H](NC(=O)c1ccc(-c2ccc(CSc3nc4c(c(=O)[nH]3)CCC4)cc2)o1)C(C)C [(R)-17a],loss of inhibition activity vs. MMP-13 compared to the (S)-enantiomer,[1],ca. 12 fold
same,IC50,[1],72 nM
CC(C)[C@H](NS(=O)(=O)c1ccc(-c2ccc(CSc3nc4c(c(=O)[nH]3)CCC4)cc2)cc1)C(=O)O [(S)-10a],Ki,[2],2.3 nM
same,IC50,[1],2.2 nM
CNC(=O)[C@@H](NC(=O)c1ccc(-c2ccc(CSc3nc4c(c(=O)[nH]3)CCC4)cc2)o1)C(C)C [(S)-17a],inhibition of MMP-2 in single dose assay,[3],moderately active inhibitor
same,improvement of MMP-13 inhibition potency compared to 5,[1],"~1,000 fold"
same,IC50,[1],5.9 nM
same,inhibition of MMP-8 in single dose assay,[4],moderately active inhibitor
O=C(O)CNS(=O)(=O)c1ccc(-c2ccc(CSc3nc4c(c(=O)[nH]3)CCC4)cc2)cc1 [Compound 10b],Ki,[2],1.8 nM
same,IC50,[1],1.6 nM
NCCNS(=O)(=O)c1ccc(-c2ccc(CSc3nc4c(c(=O)[nH]3)CCC4)cc2)cc1 [Compound 10d],inhibition at 1 µM,[5]; [30],7%
same,inhibition at 1 µM,[6]; [30],1%
same,inhibition,[7],13%
same,inhibition at 1 µM,[8]; [30],4%
same,inhibition at 1 µM,[9]; [30],12%
same,inhibition at 1 µM,[10]; [30],0%
same,inhibition at 1 µM,[11]; [30],0%
same,inhibition at 1 µM,[12]; [30],3%
same,inhibition at 1 µM,[13]; [30],1%
same,inhibition at 1 µM,[14]; [30],1%
same,inhibition at 1 µM,[15]; [30],3%
same,inhibition at 1 µM,[16]; [30],0%
same,inhibition at 1 µM,[17]; [30],0%
same,inhibition at 1 µM,[18]; [30],3%
same,inhibition at 1 µM,[19]; [30],9%
same,inhibition at 1 µM,[20]; [30],0%
same,inhibition at 1 µM,[21]; [30],1%
same,inhibition at 1 µM,[22]; [30],3%
same,inhibition at 1 µM,[23]; [30],0%
same,inhibition,"[24]; single stranded peptide substrate, inhibitor (text 1 μM), duplicates",-3%
same,inhibition at 1 µM,[25]; [30],0%
same,less active as inhibitor of MMP-12 than as MMP-13 inhibitor,[26],140 fold
same,IC50,"[26]; fTHP substrates (footnote), 10-point dilution",470 nM and 467 nM
same,inhibition at 1 µM,[27]; [30],7%
same,inhibition at 1000 µM,[28],40%
same,inhibition at 1 µM,[29]; [30],0%
CC(C)[C@@H](NS(=O)(=O)c1ccc(-c2ccc(CSc3nc4c(c(=O)[nH]3)CCC4)cc2)cc1)C(=O)O [Compound (R)-10a],Ki,[2],1.6 nM
same,IC50,[1],2.4 nM
CNC(=O)[C@@H](NC(=O)c1ccc(-c2ccc(CSc3nc4c(c(=O)[nH]3)CCC4)c(F)c2)o1)C(C)C [Compound (S)-17b],inhibition,[5]; read-out: % Inhibition MMP-7,4%
same,inhibition,[6]; read-out: % Inhibition BACE-1,0%
same,inhibition,[8]; read-out: % Inhibition TACE,-3%
same,inhibition,[9]; read-out: % Inhibition Cathepsin-S,2%
same,inhibition,[10]; read-out: % Inhibition Caspase-2,0%
same,inhibition,[11]; read-out: % Inhibition Caspase-3,0%
same,inhibition,[12]; read-out: % Inhibition uPA,1%
same,inhibition,[13]; read-out: % Inhibition Caspase-1,0%
same,inhibition,[14]; read-out: % Inhibition Caspase-7,8%
same,inhibition,[15]; read-out: % Inhibition Cathepsin-D,0%
same,inhibition,[16]; read-out: % Inhibition ADAM10,0%
same,inhibition,[17]; read-out: % Inhibition Cathepsin-K,2%
same,inhibition,[18]; read-out: % Inhibition Factor-XA,0%
same,inhibition,[19]; read-out: % Inhibition Cathepsin-L,7%
same,inhibition,[20]; read-out: % Inhibition Furin,0%
same,inhibition,[21]; read-out: % Inhibition ACE2,0%
same,inhibition,[22]; read-out: % Inhibition Neprilysin,-6%
same,inhibition,[23]; read-out: % Inhibition Caspase-6,0%
same,inhibition,[24],-8%
same,inhibition,[25]; read-out: % Inhibition Caspase-5,0%
same,inhibition,[27]; read-out: % Inhibition ACE,0%
same,inhibition,[29]; read-out: % Inhibition IDE,0%
